Earlier results in US20190290629A1, “NIRAPARIB SUSTAINED AND CONTROLLED RELEASE PHARMACEUTICAL COMPOSITION AND USE THEREOF” (priority 2016, published 2019).
Read-outs that look alike come from different tables or passages of the source.

Assays:
ovarian cancer = conditions: orally once daily
[1] = not given; remark: listed apart in the source
[2] = immediate release capsule, clinical studies

patients with 3-4 grade anemia (clinical studies): 25%
patients with grade 3-4 platelet reduction (clinical studies): 29%
patients with neutropenia (clinical studies): 30%
steady-state blood concentration peak value ([1]; 300 mg/time/day): about 4.4 μM
steady-state blood concentration trough value ([1]; 300 mg/time/day): ~2.0 µM
time at which steady-state blood concentration is reached ([1]; 300 mg/time/day): 12 to 14 days
oral bioavailability ([1]; immediate release capsule of niraparib tosylate monohydrate, clinical studies): 73%
blood concentration peak time [1, 2]: 3 h
effect of food on plasma exposure [1, 2]: not affected by food
plasma half-life [1, 2]: more than 30 hours
Structure (SMILES): NC(=O)c1cccc2cn(-c3ccc([C@@H]4CCCNC4)cc3)nc12 [niraparib, (S)-2-(4-(piperidin-3-yl)phenyl)-2H-indazole-7-carboxamide]
median progression free survival time (ovarian cancer; patients with ovarian cancer of BRCA gene mutation, after first chemotherapy): 21 months
median progression free survival time (ovarian cancer; patients without BRCA gene mutations): 9.3 months
dose-limiting toxicity (clinical): thrombocytopenia and anemia
patients who discontinued the treatment due to toxic and side effects (clinical studies): 15%
patients who reduced dose or stopped taking the drug due to toxic and side effects (clinical studies): 69%
